Data reported in patent publication US6277859A, “Morphinan derivative and its pharmaceutical applications” (priority 1992, dated 2001).
Counter-ions that a name gives are not always drawn.

Assays:
μ receptor = biological target: T1, μ receptor (Mus musculus, UniProt P42866); experiment: Ke with naloxone in isolated mouse vas deference preparation; type: cell-based, mouse (male ddy)
T1 construct: The isolated vas deference was filled with Krebes-Henseleit solution; from tissue; host or cells: isolated vas deferens of male ddy mouse
T1 sequence (P42866 whole entry): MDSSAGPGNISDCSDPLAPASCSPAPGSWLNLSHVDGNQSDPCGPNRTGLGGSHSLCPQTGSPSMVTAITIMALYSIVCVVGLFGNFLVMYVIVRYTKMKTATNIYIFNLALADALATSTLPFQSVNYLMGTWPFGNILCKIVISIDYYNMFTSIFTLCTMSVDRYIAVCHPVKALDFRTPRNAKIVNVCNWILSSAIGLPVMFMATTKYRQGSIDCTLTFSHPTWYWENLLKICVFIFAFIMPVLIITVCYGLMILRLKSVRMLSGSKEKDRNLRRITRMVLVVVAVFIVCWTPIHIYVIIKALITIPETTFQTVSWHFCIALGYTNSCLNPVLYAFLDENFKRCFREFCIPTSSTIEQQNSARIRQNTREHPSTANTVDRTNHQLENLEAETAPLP
Method: (§1) A male ddy mouse was used in this test. The isolated vas deference was filled with Krebes-Henseleit solution (NaCl 118 mM; KCl 4.7 mM; CaCl2 2.5 mM; KH2 PO4 1.1 mM; NaHCO3 25 mM; and glucose 10 mM) warmed to 37° C. and suspended in a Magnus tube ventilated with 5% carbon dioxide and 95% oxygen. Electrical stimulus was performed at 0.1 Hz for 5.0 ms by means of ring-shaped platinum electrodes located above and below. Tissue contractions were recorded on a polygraph using an isometric transducer.
(§2) Then after adequately washing with nutrient solution and the contraction reaction stabilized, naloxone, a μ […], NTI, a δ […], or norBNI, a κ […], were added and the test compound was again cumulatively added after roughly 20 minutes. The Ke value was calculated using the following calculation formula from the difference in the efficacies of both agonists.
(§3) Ke=[Conc. of added agonist]/(IC50 ratio-1)
(§4) IC50 ratio IC50 in the presence of agonist/IC50 in the absence of agonist

δ receptor = biological target: T2, δ receptor (Mus musculus, UniProt P32300); experiment: Ke with NTI in isolated mouse vas deference preparation; type: cell-based, mouse (male ddy); conditions: for Ke NTI: NTI (δ)
T2 construct: The isolated vas deference was filled with Krebes-Henseleit solution; from tissue; host or cells: isolated vas deferens of male ddy mouse
T2 sequence (P32300 whole entry): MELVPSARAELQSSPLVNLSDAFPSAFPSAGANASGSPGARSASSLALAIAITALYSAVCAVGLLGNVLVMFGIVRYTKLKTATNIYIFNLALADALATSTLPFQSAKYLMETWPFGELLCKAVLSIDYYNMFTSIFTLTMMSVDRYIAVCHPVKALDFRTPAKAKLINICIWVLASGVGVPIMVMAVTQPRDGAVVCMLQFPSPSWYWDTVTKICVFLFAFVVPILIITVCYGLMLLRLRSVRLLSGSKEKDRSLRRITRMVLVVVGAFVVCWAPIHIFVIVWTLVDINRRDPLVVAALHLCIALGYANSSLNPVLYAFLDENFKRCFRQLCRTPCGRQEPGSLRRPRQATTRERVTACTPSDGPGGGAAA
Method: as §1, §2, §3, §4

Wistar rats = experiment: Evaluation of diuretic action; type: in vivo, rat (male Wistar); conditions: sc, rat, s.c., urine output for 5 h after 20 ml/kg saline oral; for ED500: read-out: ED500, diuretic action (dose giving urine output of 500, non-dosed group = 100); for ED200: read-out: ED200, diuretic action (dose giving urine output of 200, non-dosed group = 100)
Method: Evaluation of Diuretic Action
7-8 week old male Wistar rats were used in this test after prohibiting from drinking water for 1 hour before testing. After discharging any urine accumulated in the bladder by gently stimulating the lower abdomens of the animals, the drug was administered subcutaneously. After 30 minutes, the animals were then forcibly given 20 ml/kg of physiological saline orally. The animals were then placed in metabolic cages immediately after administration of the drug (2 animals/cage) and urine output for 5 hours after loading with physiological saline was measured. Drug efficacy was expressed in the form of those doses resulting in urine outputs of 200 and 500, respectively, when the urine output of a non-dosed group was taken to be 100. Those doses were expressed as the ED200 and ED500 values, respectively.

κ receptor = biological target: T3, κ receptor (Mus musculus, UniProt P33534); experiment: Ke with norBNI in isolated mouse vas deference preparation; type: cell-based, mouse (male ddy); conditions: for Ke norBNI: norBNI (κ)
T3 construct: The isolated vas deference was filled with Krebes-Henseleit solution; from tissue; host or cells: isolated vas deferens of male ddy mouse
T3 sequence (P33534 whole entry): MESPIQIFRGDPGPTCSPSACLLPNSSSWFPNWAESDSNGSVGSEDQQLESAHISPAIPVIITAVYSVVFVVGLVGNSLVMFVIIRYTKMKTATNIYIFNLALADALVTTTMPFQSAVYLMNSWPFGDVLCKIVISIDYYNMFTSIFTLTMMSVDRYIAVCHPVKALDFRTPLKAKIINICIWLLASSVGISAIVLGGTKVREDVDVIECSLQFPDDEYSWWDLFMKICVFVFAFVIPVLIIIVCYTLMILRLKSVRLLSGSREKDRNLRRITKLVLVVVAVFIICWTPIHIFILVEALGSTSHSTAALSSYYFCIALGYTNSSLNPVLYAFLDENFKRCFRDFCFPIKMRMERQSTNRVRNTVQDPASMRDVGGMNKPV
Method: as §1, §2, §3, §4

[1] = system: isolated mouse vas deference; experiment: Opioid activity test using the isolated mouse vas deference preparation (electrically stimulated contractions); type: cell-based, mouse (male ddy); conditions: suppression of electrically stimulated contractions
Method: Opioid Activity Test Using the Isolated Mouse Vas Deference Preparation
as §1, §2

SMILES	Ke Naloxone (μ receptor) [nM]	Ke NTI (δ receptor) [nM]	ED500 (Wistar rats) [µg/kg]	ED200 (Wistar rats) [µg/kg]	selective agonist for κ receptors (in words) (κ receptor)	Ke norBNI (κ receptor) [nM]	IC50 [1] [nM]	selective agonist for δ receptors (in words) (δ receptor)
CN(C(=O)CCc1ccccc1)[C@H]1CC[C@@]2(O)[C@H]3Cc4ccc(O)c5c4[C@@]2(CCN3CC2CC2)[C@H]1O5 [Compound 22, 17-Cyclopropylmethyl-4,5α-epoxy-3,14β-dihydroxy-6α-(N-methyl-3-phenylpropionamido)morphinan.tartrate]	800	545	17	0.95	selective agonists for κ receptors	5.53		
CN(C(=O)/C=C/c1ccoc1)[C@@H]1CC[C@@]2(O)[C@H]3Cc4ccc(O)c5c4[C@@]2(CCN3CC2CC2)[C@H]1O5 [Compound 61, 17-cyclopropylmethyl-3,14β-dihydroxy-4,5α-epoxy-6β-[N-methyl-trans-3-(3-furyl)acrylamido]morphinan.tartrate]				3.2		0.164	0.42	
CN(C(=O)COc1ccccc1)[C@H]1CC[C@@]2(O)[C@H]3Cc4ccc(O)c5c4[C@@]2(CCN3CC2CC2)[C@H]1O5 [Compound 38, 17-cyclopropylmethyl-3,14β-dihydroxy-4,5α-epoxy-6α-(N-methylphenoxyacetamido) morphinan.hydrochloride]	411	16.6		3.8	selective agonists for κ receptors	4.65		
CN(C(=O)/C=C/c1ccccc1)[C@H]1CC[C@@]2(O)[C@H]3Cc4ccc(O)c5c4[C@@]2(CCN3CC2CC2)[C@H]1O5 [Compound 24, 17-cyclopropylmethyl-3,14β-dihydroxy-4,5α-epoxy-6α-(N-methylcinnamamido)morphinan.hydrochloride]	16.5	0.426	6.3	0.69		4.90		selective agonists for δ receptors
CN(C(=O)C#Cc1ccccc1)[C@@H]1CC[C@@]2(O)[C@H]3Cc4ccc(O)c5c4[C@@]2(CCN3CC2CC2)[C@H]1O5 [Compound 101, 17-cyclopropylmethyl-3,14β-dihydroxy-4,5α-epoxy-6β-(N-methyl-3-phenylpropiolamido)morphinan.hydrochloride]	25.4	31.6		8.9	selective agonists for κ receptors	0.0425		
Cc1cccc(/C=C/C(=O)N(C)[C@@H]2CC[C@@]3(O)[C@H]4Cc5ccc(O)c6c5[C@@]3(CCN4CC3CC3)[C@H]2O6)c1 [Compound 69, 17-cyclopropylmethyl-3,14β-dihydroxy-4,5α-epoxy-6β-(N-methyl-3-methylcinnamamido)morphinan.hydrochloride]	1780	64.5			selective agonists for κ receptors	1.95	0.32	
CN(C(=O)/C=C/c1cccc(F)c1)[C@@H]1CC[C@@]2(O)[C@H]3Cc4ccc(O)c5c4[C@@]2(CCN3CC2CC2)[C@H]1O5 [Compound 102, 17-cyclopropylmethyl-3,14β-dihydroxy-4,5α-epoxy-6β-(N-methyl-3-fluorocinnamamido)morphinan.tartrate]		276		1.4	selective agonists for κ receptors	2.37	1.6	
CN(C(=O)OCc1ccc([N+](=O)[O-])cc1)[C@H]1CC[C@@]2(O)[C@H]3Cc4ccc(O)c5c4[C@@]2(CCN3CC2CC2)[C@H]1O5 [Compound 43, 17-cyclopropylmethyl-3,14β-dihydroxy-4,5α-epoxy-6α-(N-methyl-4-nitrobenzyloxycarbamido)morphinan.hydrochloride]	409	22.5	4.4	0.54	selective agonists for κ receptors	5.31		
CN(C(=O)/C=C/c1cccc([N+](=O)[O-])c1)[C@H]1CC[C@@]2(O)[C@H]3Cc4ccc(O)c5c4[C@@]2(CCN3CC2CC2)[C@H]1O5 [Compound 97, 17-cyclopropylmethyl-3,14β-dihydroxy-4,5α-epoxy-6α-(N-methyl-3-nitrocinnamamido)morphinanphosphate]	163	2.92		4.5		13.9		selective agonists for δ receptors
CN(C(=O)/C=C/c1ccoc1)[C@H]1CC[C@@]2(O)[C@H]3Cc4ccc(O)c5c4[C@@]2(CCN3CC2CC2)[C@H]1O5 [Compound 89, 17-cyclopropylmethyl-3,14β-dihydroxy-4,5α-epoxy-6α-[N-methyl-trans-3-(3-furyl)acrylamido]morphinane.tartrate]	18.3	15.6		1.2	selective agonists for κ receptors	0.85		
CCC/C=C/C(=O)N(C)[C@@H]1CC[C@@]2(O)[C@H]3Cc4ccc(O)c5c4[C@@]2(CCN3CC2CC2)[C@H]1O5 [Compound 100, 17-cyclopropylmethyl-3,14β-dihydroxy-4,5α-epoxy-6β-(N-methyl-trans-2-hexenamido)morphinan.tartrate]	1797				selective agonists for κ receptors	0.0717	0.647	
CN(C(=O)/C=C/c1ccco1)[C@@H]1CC[C@@]2(O)[C@H]3Cc4ccc(O)c5c4[C@@]2(CCN3CC2CC2)[C@H]1O5 [Compound 70, 17-cyclopropylmethyl-3,14β-dihydroxy-4,5α-epoxy-62. [N-methyl-trans-3-(2-furyl)acrylamido] morphinan.hydrochloride]					selective agonists for κ receptors	0.198	0.545	
CCCCCC(=O)N(C)[C@H]1CC[C@@]2(O)[C@H]3Cc4ccc(O)c5c4[C@@]2(CCN3CC2CC2)[C@H]1O5 [Compound 39, 17-cyclopropylmethyl-3,14β-dihydroxy-4,5α-epoxy-6α-(N-methylhexanamido)morphinan.tartrate]	89.9	99.3		4.1	selective agonists for κ receptors	1.01		
CN(C(=O)/C=C/C1CCCCC1)[C@@H]1CC[C@@]2(O)[C@H]3Cc4ccc(O)c5c4[C@@]2(CCN3CC2CC2)[C@H]1O5 [Compound 68, 17-cyclopropylmethyl-3,14,β-dihydroxy-4,5α-epoxy-6β-(N-methyl-3-cyclohexylacrylamido) morphinan.tartrate]	5710	143		1.6	selective agonists for κ receptors	1.08	0.457	
CN(C(=O)/C=C/c1cccc(C(F)(F)F)c1)[C@@H]1CC[C@@]2(O)[C@H]3Cc4ccc(O)c5c4[C@@]2(CCN3CC2CC2)[C@H]1O5 [Compound 60, 17-cyclopropylmethyl-3,14β-dihydroxy-4,5α-epoxy-60-(N-methyl-3-trifluoromethylcinnaiamido)morphinan.tartrate]		291			selective agonists for κ receptors	3.20	0.468	
CN(C(=O)C#Cc1ccccc1)[C@H]1CC[C@@]2(O)[C@H]3Cc4ccc(O)c5c4[C@@]2(CCN3CC2CC2)[C@H]1O5 [Compound 84, 17-cyclopropylmethyl-3,14β-dihydroxy-4,5α-epoxy-6α-(N-methyl-3-phenylpropiolamido)morphinan.hydrochloride]	35.4	0.309		2.8		5.69		selective agonists for δ receptors
